From US12606543B2, “Indole derivatives as serotonergic agents useful for the treatment of disorders related thereto” (priority 2023, dated 2026)
Where two headings read alike, the source gives them in different places.

Tests used:
[1] = Plasma protein binding by equilibrium dialysis, human; format: in vitro ADME; conditions: human plasma, 6 hours; for fraction unbound at 6 h, 1 μM / recovery at 6 h, 1 µM: equilibrium dialysis, 37° C.; for fraction unbound at 6 h, 1 μM: read-out: % Bound (converted); for recovery at 6 h, 1 µM: human, plasma
Method: (§1) The final concentration of compound was 1 μM. The final concentration of DMSO was 0.5%. Ketoconazole was used as positive control in the assay.
(§2) The assay was performed in duplicate.
(§3) All calculations were carried out using Microsoft Excel. […] The percentages of bound compound were calculated as follows: […]
(§4) Ketoconazole was used as positive control in the assay.

[2] = Plasma protein binding by equilibrium dialysis, mouse; format: in vitro ADME; conditions: mouse plasma, 6 hours; for recovery at 6 h, 1 µM: CD-1, mouse, plasma; for recovery at 6 h, 1 µM / fraction unbound at 6 h, 1 μM: equilibrium dialysis, 37° C.; for fraction unbound at 6 h, 1 μM: CD-1, read-out: % Bound (converted)
Method: as §1, §2, §3, §4

[3] = target: T1, human 5-HT2B receptor (Homo sapiens, UniProt P41595); assay: Human 5-HT2B positive allosteric modulator (PAM) assay; format: cell-based; design: expressed in transfected cells; host or cells: HEK293; conditions: HEK293 cells; for Emax (% of serotonin): PAM mode, agonist at EC20, relative to maximum response of serotonin; for EC50: PAM mode: pre-incubation with sample, then agonist at EC20, read-out: EC50
Method: Compound potency (EC50) and efficacy (Max response) against the human 5-HT2B receptor in stably transfected HEK293 cells were determined in a GPCR cell-based assay.
(§5) For Positive Allosteric Modulator determination, cells were pre-incubated with sample followed by EC20 addition. Intermediate dilution of sample stocks were performed to generate 5× samples in assay buffer. 5 μL of 5× samples were added to cells and incubated at 37° C. for 10 mins. 5 μL of agonist at 6×EC20 concentration was added and cells were incubated at 37° C. for 120 mins. Final assay vehicle concentration was 1%. The results are expressed as percent efficacy relative to the maximum response of the control ligand (serotonin) in Table 14.
Compound potency (EC50) and efficacy (Max response) against the human 5-HT2B receptor in stably transfected HEK293 cells was determined in a GPCR cell-based assay.
as §5, with “sample stocks was performed to” for “sample stocks were performed to”, “added and the cells were” for “added and cells were”, “120 mins. The final assay vehicle” for “120 mins. Final assay vehicle”, “in Table 64.” for “in Table 14.”

[4] = target: T1, human 5-HT2B receptor; assay: Human 5-HT2B FLIPR calcium mobilization assay; format: cell-based; design: expressed in transfected cells; host or cells: HEK293; conditions: calcium mobilization FLIPR; for Emax (% of serotonin): HEK293 cells, relative to maximum response of serotonin; for EC50: stably transfected HEK293 cells, read-out: EC50
Method: Compound potency (EC50) and efficacy (Max response) against the human 5-HT2B receptor in stably transfected HEK293 cells were determined in a calcium mobilization-based assay.
Cells were seeded in a total volume of 20 μL into white walled, 384-well microplates and incubated at 37° C. overnight. Prior to testing, cell plating media was exchanged with 20 μL of Dye Loading buffer (HBSS+20 mM HEPES containing 1× Dye, 1× Additive A, and 2.5 mM Probenecid). Plates were incubated at 37° C. for 45 mins followed by 15 mins at room temperature.
(§6) 10 μL of assay buffer (HBSS+20 mM HEPES) were added to cells. Intermediate dilution of sample stocks was performed to generate 4× samples in assay buffer. Assay plates and compound plates were loaded into the FLIPR instrument. 10 μL of sample was added using the FLIPR onboard robotics after 5 seconds of starting calcium measurement. A final assay vehicle concentration was 1%. The results are expressed as percent efficacy relative to the maximum response of the control ligand (serotonin) in Table 12.
Compound potency (EC50) and efficacy (Max response) against the human 5-HT2B receptor in stably transfected HE K293 cells was determined in a calcium mobilization-based assay.
as §6, with “HEPES) was” for “HEPES) were”, “of samples were” for “of sample was”, “5 secs” for “5 seconds”, “measurement. The” for “measurement. A”, “Table 62.” for “Table 12.”

[5] = Pharmacokinetic studies in rat (i.v.); format: in vivo; conditions: male, Sprague-Dawley, plasma; for concentration at 0.25 h / concentration at 1 h / concentration at 4 h: intravenous, dose per Dose column (1.32-2.09 mg/kg); for half-life / AUC(0-t): iv, rat plasma, i.v., dose per Dose column; for half-life: estimated from 2 points only
Method: Animals: Male Sprague-Dawley rats (˜225-350 g) from Charles River Labs were acclimatized for a minimum of 5 days prior to start of study procedures. Body weights were recorded on the day of dosing.
Any abnormalities were documented including presence/absence of wet dog shakes/back muscle contractions (WDS/BMC).
Dosing: Formulations were administered intravenously (i.v.) via the tail vein using a 25 G needle connected to a 1 cc syringe.
The exemplary compounds of Formula (I) were freshly prepared at the appropriate concentrations in 5% Tween-80 in saline.
Blood collection time (h): 0, […], 1 and 4
Volume/time-point: ˜0.25 mL (saphenous vein)
Instrumentation: AB Sciex QTRAP 4000 or 6500 MS/MS system equipped with an LC system with a binary pump, a solvent degasser, a thermostated column compartment, and a multiplate autosampler.
Analysis software: Phoenix® WinNonlin® 8.3 (Pharsight, Certara, Mountainview, CA).
Analysis methods: non-compartmental analysis, linear up/log down trapezoidal rule.
PK parameters: t1/2 and AUC0-tlast was estimated.
The Compounds of Formula (I) were freshly prepared at the appropriate concentrations in 5% Tween-80 in saline.
Instrumentation: AB Sciex QTRAP 4000 or 6500 MS/MS system equipped with an LC system with a binary pump, a solvent degasser, a thermostated column compartment and a multiplate autosampler.
PK parameters: t1/2 and AUC0-tlast will be estimated.

[6] = Plasma protein binding by equilibrium dialysis, dog; format: in vitro ADME; conditions: dog plasma, 6 hours; for recovery at 6 h, 1 µM / fraction unbound at 6 h, 1 μM: Beagle, equilibrium dialysis, 37° C.; for recovery at 6 h, 1 µM: dog; for fraction unbound at 6 h, 1 μM: read-out: % Bound (converted)
Method: as §1, §2, §3, §4

[7] = first animal (R07/R04/R01/R10), read-out: Plasma concentration
[8] = mean of 3 rats, read-out: Plasma concentration, Mean ± SD
[9] = second animal (R08/R05/R02/R11), read-out: Plasma concentration
[10] = third animal (R09/R06/R03/R12), read-out: Plasma concentration
[11] = first animal (R07/R04/R01/R10), read-out: Apparent t1/2 (converted)
[12] = mean of 3 rats, read-out: Apparent t1/2, Mean ± SD (converted)
[13] = second animal (R08/R05/R02/R11), read-out: Apparent t1/2 (converted)
[14] = third animal (R09/R06/R03/R12), read-out: Apparent t1/2 (converted)
[15] = first animal (R07/R04/R01/R10), read-out: AUC0-tlast
[16] = mean of 3 rats, read-out: AUC0-tlast, Mean ± SD
[17] = second animal (R08/R05/R02/R11), read-out: AUC0-tlast
[18] = third animal (R09/R06/R03/R12), read-out: AUC0-tlast

T1 sequence (P41595 whole entry): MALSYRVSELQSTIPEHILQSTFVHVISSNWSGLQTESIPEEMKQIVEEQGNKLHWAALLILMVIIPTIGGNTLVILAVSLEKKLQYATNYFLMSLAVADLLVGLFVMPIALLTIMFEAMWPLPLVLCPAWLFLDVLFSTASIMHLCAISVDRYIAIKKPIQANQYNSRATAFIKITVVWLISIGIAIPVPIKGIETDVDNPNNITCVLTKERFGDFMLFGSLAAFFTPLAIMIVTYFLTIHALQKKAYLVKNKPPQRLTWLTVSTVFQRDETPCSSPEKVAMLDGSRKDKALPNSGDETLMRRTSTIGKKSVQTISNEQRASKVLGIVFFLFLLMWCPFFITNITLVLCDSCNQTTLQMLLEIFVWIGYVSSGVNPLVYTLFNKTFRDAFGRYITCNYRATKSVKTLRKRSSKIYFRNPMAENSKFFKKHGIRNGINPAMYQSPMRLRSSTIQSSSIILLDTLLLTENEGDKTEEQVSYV

SMILES	% Remaining @ 6 hours [1] [%]	fraction unbound at 6 h, 1 μM [1]	recovery at 6 h, 1 µM [1] [%]	recovery at 6 h, 1 µM [2] [%]	fraction unbound at 6 h, 1 μM [2]	% Remaining @ 6 hours [2] [%]	Emax (% of serotonin) [3]	EC50 [3] [nM]	Emax (% of serotonin) [4]	EC50 [4] [nM]	concentration at 0.25 h [5, 7] [ng/mL]	concentration at 0.25 h [5, 8] [ng/mL]	concentration at 0.25 h [5, 9] [ng/mL]	concentration at 0.25 h [5, 10] [ng/mL]	concentration at 1 h [5, 7] [ng/mL]	concentration at 1 h [5, 8] [ng/mL]	concentration at 1 h [5, 9] [ng/mL]	concentration at 1 h [5, 10] [ng/mL]	concentration at 4 h [5, 7] [ng/mL]	concentration at 4 h [5, 8] [ng/mL]	further results
COCCN1CCC[C@@H]1Cc1c[nH]c2ccc(OC)cc12 [(R) I-98, (R)-5-Methoxy-3-((1-(2-methoxyethyl)pyrrolidin-2-yl)methyl)-1H-indole]	104.64	0.168	101	96.4	0.632	103.70	0 % of serotonin	> 10000	52.7 % of serotonin	2.88	411	446 ± 34.1	479	449	128	113 ± 14.2	110	100	2.48	2.32 ± 0.139	concentration at 4 h [5, 9]: 2.25 ng/mL; concentration at 4 h [5, 10]: 2.23 ng/mL; half-life [5, 11]: 30.8 min; half-life [5, 12]: 30.4 ± 0.473 min; half-life [5, 13]: 29.9 min; half-life [5, 14]: 30.3 min; AUC(0-t) [5, 15]: 403 ng·h/mL; AUC(0-t) [5, 16]: 409 ± 15.1 ng·h/mL; AUC(0-t) [5, 17]: 426 ng·h/mL; AUC(0-t) [5, 18]: 397 ng·h/mL; recovery at 6 h, 1 µM [6]: 104%; fraction unbound at 6 h, 1 μM [6]: 0.157; % Remaining @ 6 hours [6]: 110.92%
[2H]C([2H])(c1c[nH]c2ccc(OCCCCN3C(=O)c4ccccc4C3=O)cc12)[C@H]1CCCN1C([2H])([2H])[2H] [(R) I-244, (R)-2-(4-((3-((1-(Methyl-d3)pyrrolidin-2-yl)methyl-d2)-1H-indol-5-yl)oxy)butyl)isoindoline-1,3-dione]	105.89	0.0142	90.1	84.8	0.101	94.96	26.89 % of serotonin	97.4	92.75 % of serotonin	2.5	252	292 ± 59.4	360	263	132	130 ± 21.6	150	107	20.7	22 ± 1.63	concentration at 4 h [5, 9]: 23.8 ng/mL; concentration at 4 h [5, 10]: 21.4 ng/mL; half-life [5, 11]: 63.6 min; half-life [5, 12]: 63 ± 2.96 min; half-life [5, 13]: 60 min; half-life [5, 14]: 66 min; AUC(0-t) [5, 15]: 390 ng·h/mL; AUC(0-t) [5, 16]: 415 ± 65.7 ng·h/mL; AUC(0-t) [5, 17]: 490 ng·h/mL; AUC(0-t) [5, 18]: 366 ng·h/mL; recovery at 6 h, 1 µM [6]: 94.6%; fraction unbound at 6 h, 1 μM [6]: 0.0281; % Remaining @ 6 hours [6]: 94.07%
